Assay [1] concerns rats post spinal nerve ligation. The experiment in a line: Spinal nerve ligation (SNL), von Frey mechanical withdrawal (FIG. 3). Type of assay: in vivo, Sprague Dawley rats. The settings on record: oral, 100 mg/kg, 14 days post-SNL, tested 1, 2 and 4 hours. On the procedure:
Ligation of the L5 and L6 spinal nerves in rats leads to a robust pain state, characterized by tactile allodynia and mechanical hyperalgesia that can be assayed using the von Frey or Hargreaves assays (Kim, S. H. and Chung, J. M. Pain 50 (1992): 355-63). Sprague Dawley rats were housed in the animal vivarium 2 weeks prior to testing and housed on a 12 h light/dark cycle with food and water ad libitum. Under general anesthesia, the L5 and L6 spinal nerves on one side of the rat spine were tightly ligated using sterile surgical suture (Spinal Nerve Ligation, SNL). The incision site of each animal was then closed using standard surgical technique. Spared Nerve Injury: Animals were anesthetized by 2% isoflurane with 98% oxygen inhalation. […] The mechanical allodynia were measured at 60 minutes after administration every day (von Frey Cilia Apparatus, manufactured by Institute of Biology Bioengineering, Chinese Academy of Medical Science).
Baseline mechanical (von Frey) withdrawal responses were tested immediately before SNL surgery and 14 days after. […] Immediately after the 14-day post-surgical baseline responses were measured, Compound A (100 mg/kg), Gabapentin (100 mg/kg), or vehicle (control) were administered orally and voluntary withdrawal from von Frey mechanical stimuli were tested 1 hour, 2 hours and 4 hours later (FIG. 3). […]

Assay [2] has as its system rats after intraplantar incision. The experiment in a line: Rodent paw incision, Hargreaves thermal withdrawal assay (FIG. 1). Format: in vivo, Sprague Dawley rats. The settings on record: intravenous, 30 mg/kg, post-surgery baseline, tested 0.5-4 hours. On the procedure:
The rodent paw incision model involves inducing a surgical incision to the plantar surface of the back paw of a mouse or rat, suturing the incision closed, then testing the area proximal to the wound for changes in sensory perception, such as allodynia or hypersensitivity, at some point in time after the incision (typically 24 hours later)(Brennan T J et al. Pain. 1996 March, 64(3):493-501). Thermal (Hargreaves) and mechanical (von Frey) sensory testing is performed before and 24 hours after surgical incision of the plantar surface of the left back paw of laboratory rats, at a plantar area adjacent to the incision. […]
Plantar incision of the hind paw of the rat produces a profound local inflammatory response characterized by pain hypersensitivity (allodynia) 24 hours after surgery in rats, in similar manner to the post-operative pain observed in humans (Brennan, T. J. et al. Pain. 1996 March; 64(3):493-501). […] Three days prior to testing the compound, thermal (Hargreaves) and mechanical (von Frey) sensitivity were measured using standard techniques described below. […] The thermal sensitivities of the animals were measured before surgery and 24 hours after surgery using the Hargreaves Thermal Withdrawal Assay (FIG. 1) (Kim, S. H. and Chung, J. M. Pain 50 (1992): 355-63). […]

Assay [3] has as its system rat models of neuropathic pain. The settings on record: rat models of neuropathic pain (Field et al. 1999); cited from earlier work.

As for `NCC1(CC(=O)O)CCCCC1` [gabapentin], in assay [1], the “reversal of reduced mechanical withdrawal thresholds post spinal nerve ligation” value is recorded as “reversed”.

For the molecule `CC(C)Cc1ccc(C(C)C(=O)O)cc1` (stereo not shown) [ibuprofen], the “reversal of reductions in thermal withdrawal thresholds after intraplantar incision” value in assay [2] was “not reversed”.

As to `CN1CC[C@]23c4c5ccc(O)c4O[C@H]2[C@@H](O)C=C[C@H]3[C@H]1C5` [morphine], the “blocking of static and dynamic allodynia” value in assay [3] was “blocking only static allodynia, and not dynamic allodynia”.

Consider `CC(C)C[C@H](CN)CC(=O)O` [pregablin], for which, in assay [3], the “blocking of static and dynamic allodynia” value is reported as “blocking both types of allodynia”.

The values are drawn from patent US11464772B2, “Methods of treating acute or chronic pain” (priority 2017, dated 2022).
